Data: publication PMC9099842, “Isolation of Potato Endophytes and Screening of Chaetomium globosum Antimicrobial Genes” (International Journal of Molecular Sciences, 2022)
Ends that are not written are not given here.

Key:
[1] = tested on: C. michiganensis; type: cell-based, Clavibacter michiganensis
[2] = tested on: B. cinerea; type: cell-based, Botrytis cinerea
[3] = tested on: C. fangii; experiment: Minimum inhibitory concentration (MIC) assay; type: cell-based, Clavibacter fangii; settings: purified peptide, 96-well plate, LB, 28 °C, 12 h
Experimental: (§1) The indicator bacteria were inoculated in LB liquid medium (OD600 ≈ 0.8–1.0) and then diluted with the indicator bacteria (OD600 ≈ 0.02–0.05). After that, we added 40 μL of diluted indicator bacteria solution to 96-well titer plates. The AMPs were diluted through a series of concentration gradients, and then an equal volume of peptides was added to the above 96-well plate and incubated at 28 °C for 12 h. […] To determine the time-kill assay, the purified antimicrobial peptide concentration was adjusted to 2× MIC concentration, and then added to a 96-well plate in equal volume with the indicator bacteria, with at least 3 wells for each concentration. After mixing the liquid evenly, it was incubated at 28 °C for 2 h, 4 h, 6 h, 8 h, 10 h, 12 h, and 24 h, and then the OD value was obtained at 600 nm.

[4] = tested on: C. michiganensis; type: cell-based, Clavibacter michiganensis; remark: listed apart in the source
[5] = tested on: X. oryzae pv. oryzae; type: cell-based, Xanthomonas oryzae pv. oryzae; settings: X. oryzae pv. oryzae co-incubated with peptide 2 h at 28 °C; MIC concentration
[6] = tested on: C. michiganensis; experiment: Pathogenicity assay (control effect on tomato plants); type: in vivo, Clavibacter michiganensis; settings: stem acupuncture inoculation of C. michiganensis mixed with equal volume of peptide at 2× MIC, greenhouse, at 7 d; for Disease Index: letters = differences at p < 0.05; for Control Efficacy (%): relative to PBS buffer group
Experimental: C. michiganensis was cultured to the logarithmic growth phase, then the pathogenic bacteria were mixed with an equal volume of antimicrobial peptides at 2× MIC, and finally tomato plants were inoculated using the stem acupuncture method. The positive control was mixed with an equal volume of polymyxin B and pathogenic bacteria, and the negative control was mixed with an equal volume of PBS buffer and pathogenic bacteria. After inoculation, the tomato plants were cultured under greenhouse conditions, and the disease incidence was observed and recorded. The equation of disease grading criteria, incidence rate, and disease index are found in Supplementary Method S5. […]
Peptide purification procedure
B. subtilis was grown in 300 mL liquid LB medium containing kanamycin (10 mg/L) and incubated at 180 r/min, 37 °C for 72 h. The supernatant was collected by centrifugation at […]
10,000× g for 25 min at 4°C. […]
Pathogenecity assay equation
C. michiganensis disease grading criteria are as follows, grade 0: no wilting or stem necrosis of leaves (or cotyledons); grade 1: mild yellowing or wilting of leaves (or cotyledons); grade 2: moderate wilting or wilting of leaves (or cotyledons) and mild necrosis of stem; Grade 3: severe wilting of leaves (or cotyledons) or severe necrosis of stem; Grade 4: plant death. The formulas for incidence rate, disease index and control efficacy are as follows: Incidence rate

[7] = tested on: X. oryzae pv. oryzae; type: cell-based, Xanthomonas oryzae pv. oryzae; settings: 20 μL extracellular peptides on filter paper, 28 °C, 5-7 h, mean ± SD, three independent experiments
[8] = tested on: Gram-positive and Gram-negative bacteria; type: physicochemical
[9] = tested on: C. fangii; type: cell-based, Clavibacter fangii
[10] = tested on: F. graminearum; type: cell-based, Fusarium graminearum; settings: 200 μL extracellular peptide per well, 28 °C, 2–4 days, vs PBS
[11] = tested on: Gram-negative bacteria and Gram-positive bacteria; experiment: MIC assay, range over all tested strains; type: cell-based; settings: purified peptide, 96-well plate, 28 °C, 12 h; range over Gram-negative and Gram-positive strains of Table 4
Experimental: as §1

[12] = tested on: X. oryzae pv. oryzae; type: cell-based, Xanthomonas oryzae pv. oryzae; settings: purified peptide, 96-well plate, LB, 28 °C, 12 h
[13] = tested on: X. oryzae pv. oryzicola; type: cell-based, Xanthomonas oryzae pv. oryzicola; settings: purified peptide, 96-well plate, LB, 28 °C, 12 h
[14] = tested on: R. solani; type: cell-based, Rhizoctonia solani
[15] = tested on: C. michiganensis; experiment: Minimum inhibitory concentration (MIC) assay; type: cell-based, Clavibacter michiganensis; settings: purified peptide, 96-well plate, LB, 28 °C, 12 h
Experimental: as §1

[16] = tested on: four tested strains (C. fangii, X. oryzae pv. oryzicola, X. oryzae pv. oryzae, C. michiganensis); type: cell-based; settings: peptides at their MICs, 28 °C, OD 600 nm; after 12 h of treatment
[17] = tested on: C. michiganensis, C. fangii, X. oryzae pv. oryzae and X. oryzae pv. oryzicola; type: physicochemical; settings: read-out agar diffusion test; for antibacterial activity after heat treatment (thermal stability), 4–75 °C: heated 30 min at 25, 50, 75 °C (4 °C control); for antibacterial activity after heat treatment (thermal stability), 100 °C: heated at 100 °C for 30 min
[18] = tested on: X. campestris pv. Holcicola; experiment: Minimum inhibitory concentration (MIC) assay; type: cell-based, Xanthomonas campestris pv. Holcicola; settings: purified peptide, 96-well plate, LB, 28 °C, 12 h
Experimental: as §1

[19] = tested on: X. oryzae pv. oryzicola; type: cell-based, Xanthomonas oryzae pv. oryzicola; settings: 20 μL extracellular peptides on filter paper, 28 °C, 5-7 h, mean ± SD, three independent experiments
[20] = tested on: Xanthomonas campestris pv. Holcicola; type: cell-based
[21] = tested on: porcine erythrocytes; settings: 5× MIC, 37 °C, 1 h, absorbance 385 nm, 0.1% Triton X-100 = 100%, PBS = 0%

| Substance | cell membrane damage by SEM [1] | inhibition of mycelia growth (in words) [2] | antimicrobial diameter (bacteriostatic spectrum) [4] [cm] | cell membrane damage by SEM [5] | Incidence (%) [6] | Disease Index [6] | Control Efficacy (%) [6] | antimicrobial diameter (bacteriostatic spectrum) [7] [cm] | antibacterial activity after UV treatment (UV stability) [8] | antimicrobial diameter (bacteriostatic spectrum) [9] [cm] | inhibition of mycelia growth (in words) [10] | inhibition of mycelia growth (in words) [14] | bacterial growth in time-kill curve [16] | antibacterial activity after heat treatment (thermal stability), 4–75 °C [17] | antibacterial activity after heat treatment (thermal stability), 100 °C [17] | antimicrobial diameter (bacteriostatic spectrum) [19] [cm] | inhibition of bacterial growth (in words) [20] | also measured |
| --- | --- | --- | --- | --- | --- | --- | --- | --- | --- | --- | --- | --- | --- | --- | --- | --- | --- | --- |
| LAVHHLHSIRGRHHSCTIAQTQANHRHNSYQPNNSSCLAKETDLPTTRSTPATTSSTAPARKSPPASPAPTRQRLCPSPPRGPVSSRHPRRRGQARGRTRAAGVRRTKGYGGKCV [CgR2150] | severely damaged, with obvious gaps and ruptures | significantly inhibit the mycelia growth | 1.19 ± 0.033 | significantly shrunken and morphologically abnormal | 13.33 c % | 5.83 | 92.56 b % | 1.39 ± 0.036 | stable bacteriostatic activity | 1.21 ± 0.037 | significantly inhibit the mycelia growth | significantly inhibit the mycelia growth | hardly grew | obvious antibacterial activity | lost their activity | 1.29 ± 0.034 | significantly inhibit the growth | MIC [3]: 15 µg/mL; MIC, range over the five tested bacteria [11]: 10 to 25 µg/mL; MIC [12]: 10 µg/mL; MIC [13]: 10 µg/mL; MIC [15]: 18 µg/mL; MIC [18]: 25 µg/mL; hemolytic activity [21]: 0.32% |
| LAVPNFEPPTRTTCPAPTSPGNPCGPPPPASQTRRPPFHPTSPLRR (cysteines drawn unpaired) [CgR3101] | severely damaged, with obvious gaps and ruptures | significantly inhibit the mycelia growth | 1.04 ± 0.033 | significantly shrunken and morphologically abnormal | 16.67 b % | 7.50 b | 90.43 c % | 1.19 ± 0.036 | stable bacteriostatic activity | 1.15 ± 0.029 | significantly inhibit the mycelia growth | significantly inhibit the mycelia growth | hardly grew | obvious antibacterial activity | lost their activity | 1.26 ± 0.024 | significantly inhibit the growth | – |
| Polymyxin B [reference compound] | – | – | – | – | 10.00 d % | 3.33 c | 95.75 a % | – | – | – | – | – | – | – | – | – | – | – |
